Source: patent US11891601B2, “Method to enhance the transcription regulation of SUPT4H on genes containing repetitive nucleotide sequences” (National Yang-Ming University, priority 2018, dated 2024)

Tested on: mutant HTT
Test: Mutant HTT protein level in HD-Drosophila by Western blotting
Type: in vivo, Drosophila melanogaster
Conditions: 10 μM 6CR plus 100 μM Tropolone in media, fly heads
Method: For Drosophila samples, 15 males and 15 females HD flies were collected after each compound treatment. Their heads were isolated and homogenized with 1× sample buffer (50 mM Tris-HCl pH 7.5, 150 mM NaCl, 1% NP-40, 0.1% sodium dodecyl sulfate (SDS), 1% sodium deoxycholate, and blue dye) for protein lysate collection. Equivalent amounts of protein lysates were separated on 12% SDS-polyacrylamide gel, and then transferred to NC membranes (GE Healthcare Life Science). Detection of HTT and α-tubulin protein was performed as described above.
In each compound treatment experiment, 15 Gmr-ga14-UAS-HTT97Q/cyo male flies were crossed with 15 Gmr-ga14-UAS-HTT-97Q/cyo females in a vial containing 10 mL of media supplemented with the testing compound at a final concentration of 10 μM 6CR (Sigma) or/and 100 μM Tropolone (Sigma). […] In each treatment group, flies were analyzed and normalized with control flies. […]
Please refer to FIG. 8. […] After parent fly removal, the 4-day-old progenies carrying one Gmr-ga14-UAS-HTT97Q allele were collected and analyzed for eye morphology. […] 4-day-old progenies as described above were collected and analyzed the levels of mutant HTT by Western blotting. α-tubulin was included and served as a loading control. […]

## O=c1cccccc1O [Tropolone]
  level of mutant HTT, 6CR with co-treatment of Tropolone: decreased accordingly
